Test results published in PubChem BioAssay AID2060612 (Molecular Pharmacology Branch, DTP, NCI, 2025).
“And” between values parts separate entries of the source, which are not always exact repeats. Identical values can stand only once.

Tested on: 565232-114-T-J1-PDC complex spheroid viability
Assay: Anticancer human tumor 565232-114-T-J1-PDC patient-derived bladder carcinoma cell line growth inhibition [CLK]
Conditions: for viability, T/C: stronger effect = lower value; active means viability on the fitted dose curve at most 10% of control; inactive means the rest
Outline: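 Patient-derived tumor cells grown as complex spheroids with HUVEC endothelial cells and mesenchymal stem cells, treated with drug combinations. Concentrations descend in half-log steps from near clinical Cmax, or from 10 microM if Cmax unknown.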

[1] = curve of first compound, second compound 0.0316 µM
[2] = curve of first compound, second compound 0.1 µM
[3] = curve of first compound, second compound 0.316 µM
[4] = curve of first compound, second compound 1 µM
[5] = curve of first compound, second compound 3.16 µM
[6] = curve of first compound, second compound 10 µM
[7] = second compound 0.0316 µM, first compound 0.0316 µM
[8] = second compound 0.0316 µM, first compound 0.1 µM
[9] = second compound 0.0316 µM, first compound 0.316 µM
[10] = second compound 0.0316 µM, first compound 1 µM
[11] = second compound 0.0316 µM, first compound 3.16 µM
[12] = second compound 0.0316 µM, first compound 10 µM
[13] = second compound 0.1 µM, first compound 0.0316 µM
[14] = second compound 0.1 µM, first compound 0.1 µM
[15] = second compound 0.1 µM, first compound 0.316 µM
[16] = second compound 0.1 µM, first compound 1 µM
[17] = second compound 0.1 µM, first compound 3.16 µM
[18] = second compound 0.1 µM, first compound 10 µM
[19] = second compound 0.316 µM, first compound 0.0316 µM
[20] = second compound 0.316 µM, first compound 0.1 µM
[21] = second compound 0.316 µM, first compound 0.316 µM
[22] = second compound 0.316 µM, first compound 1 µM
[23] = second compound 0.316 µM, first compound 3.16 µM
[24] = second compound 0.316 µM, first compound 10 µM
[25] = second compound 1 µM, first compound 0.0316 µM
[26] = second compound 1 µM, first compound 0.1 µM
[27] = second compound 1 µM, first compound 0.316 µM
[28] = second compound 1 µM, first compound 1 µM
[29] = second compound 1 µM, first compound 3.16 µM
[30] = second compound 1 µM, first compound 10 µM
[31] = second compound 3.16 µM, first compound 0.0316 µM
[32] = second compound 3.16 µM, first compound 0.1 µM
[33] = second compound 3.16 µM, first compound 0.316 µM
[34] = second compound 3.16 µM, first compound 1 µM
[35] = second compound 3.16 µM, first compound 3.16 µM
[36] = second compound 3.16 µM, first compound 10 µM
[37] = second compound 10 µM, first compound 0.0316 µM
[38] = second compound 10 µM, first compound 0.1 µM
[39] = second compound 10 µM, first compound 0.316 µM
[40] = second compound 10 µM, first compound 1 µM
[41] = second compound 10 µM, first compound 3.16 µM
[42] = second compound 10 µM, first compound 10 µM
[43] = second compound 0.0316 µM, first compound 0.00316 µM
[44] = second compound 0.0316 µM, first compound 0.01 µM
[45] = second compound 0.1 µM, first compound 0.00316 µM
[46] = second compound 0.1 µM, first compound 0.01 µM
[47] = second compound 0.316 µM, first compound 0.00316 µM
[48] = second compound 0.316 µM, first compound 0.01 µM
[49] = second compound 1 µM, first compound 0.00316 µM
[50] = second compound 1 µM, first compound 0.01 µM
[51] = second compound 3.16 µM, first compound 0.00316 µM
[52] = second compound 3.16 µM, first compound 0.01 µM
[53] = second compound 10 µM, first compound 0.00316 µM
[54] = second compound 10 µM, first compound 0.01 µM
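Further: spheroids exposed to compounds for 7 days before readout.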
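Wherever viability, T/C is given: 100% = DMSO vehicle wells with luminescence normalized to vehicle control.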

C#Cc1c(F)ccc2cc(O)cc(-c3ncc4c(N5CC6CCC(C5)N6)nc(OCC56CCCN5CC(F)C6)nc4c3F)c12 (centres undefined) + CNC(=O)c1ccc(Nc2nc(OC3CCCC3)c3c(-c4ccc5nc(C)oc5c4)c[nH]c3n2)c(OC)c1
inactive: viability, T/C [7] 78.9% | viability, T/C [8] 67.7% | viability, T/C [9] 95.5% | viability, T/C [10] 75.6% | viability, T/C [11] 119% | viability, T/C [12] 89.6% | viability, T/C [13] 49.6% | viability, T/C [14] 46.9% | viability, T/C [15] 45.9% | viability, T/C [16] 53.2% | viability, T/C [17] 51.5% | viability, T/C [18] 44.2% | viability, T/C [19] 33.3% | viability, T/C [20] 31.7% | viability, T/C [21] 28.9% | viability, T/C [22] 28.1% | viability, T/C [23] 31.5% | viability, T/C [24] 23% | viability, T/C [25] 25.8% | viability, T/C [26] 25.6% | viability, T/C [27] 22.3% | viability, T/C [28] 17.4% | viability, T/C [29] 21.5% | viability, T/C [30] 17.3% | viability, T/C [31] 18.6% | viability, T/C [32] 16.2% | viability, T/C [33] 18.8% | viability, T/C [34] 16.4% | viability, T/C [35] 16.4% | viability, T/C [36] 11.6% | viability, T/C [37] 18.6% | viability, T/C [38] 17.3% | viability, T/C [39] 12.3% | viability, T/C [40] 14.8% | viability, T/C [41] 19.7% | viability, T/C [42] 9.9%
< 31.6 nM: IC50 [2] | IC50 [3] | IC50 [4] | IC50 [5] | IC50 [6]
> 10000 nM: IC50 [1]

COc1c(OCCCN2CCOCC2)ccc2c3n(c(=NC(=O)c4cnc(N)nc4)nc12)CCN3 + CNC(=O)c1ccc(Nc2nc(OC3CCCC3)c3c(-c4ccc5nc(C)oc5c4)c[nH]c3n2)c(OC)c1
active: viability, T/C [26] 8.97% | viability, T/C [27] 5.69% | viability, T/C [28] 3.61% | viability, T/C [31] 8.92% | viability, T/C [32] 4.99% | viability, T/C [33] 5.15% | viability, T/C [34] 1.71% | viability, T/C [54] 10.3% | viability, T/C [37] 5.74% | viability, T/C [38] 5.45% | viability, T/C [39] 3.3% | viability, T/C [40] 1.73%
< 3.16 nM: IC50 [2] | IC50 [3] | IC50 [4] | IC50 [5] | IC50 [6]
inactive: viability, T/C [43] 106% | viability, T/C [44] 81.5% | viability, T/C [7] 84.9% | viability, T/C [8] 94.5% | viability, T/C [9] 118% | viability, T/C [10] 68.7% | viability, T/C [45] 39.5% | viability, T/C [46] 38.5% | viability, T/C [13] 29.8% | viability, T/C [14] 31.7% | viability, T/C [15] 22.6% | viability, T/C [16] 20.8% | viability, T/C [47] 26.9% | viability, T/C [48] 24.1% | viability, T/C [19] 22.4% | viability, T/C [20] 18.9% | viability, T/C [21] 15.8% | viability, T/C [22] 9.27% | viability, T/C [49] 15.4% | viability, T/C [50] 16.9% | viability, T/C [25] 14.5% | viability, T/C [51] 15.6% | viability, T/C [52] 9.18% | viability, T/C [53] 12.3%
> 1000 nM: IC50 [1]

CN1CCN(c2cc(C(=O)Nc3cc4cc(-c5cnn(C)c5)ccc4cn3)ccn2)CC1
inactive: viability, T/C (compound 0.0316 µM) 97.6% [middle of 9 runs] | viability, T/C (compound 0.1 µM) 106% [middle of 9 runs] | viability, T/C (compound 0.316 µM) 19.9% [middle of 9 runs]
active: viability, T/C (compound 1 µM) 1.63% [middle of 9 runs] | viability, T/C (compound 3.16 µM) 0.86% [middle of 9 runs] | viability, T/C (compound 10 µM) 0.47% [middle of 9 runs]
212 nM [middle of 8 runs]: IC50 (compound alone, run of 07/31/2023)

CCN1CCN(Cc2ccc(Nc3ncc(F)c(-c4cc(F)c5nc(C)n(C(C)C)c5c4)n3)nc2)CC1 + CNC(=O)c1ccc(Nc2nc(OC3CCCC3)c3c(-c4ccc5nc(C)oc5c4)c[nH]c3n2)c(OC)c1
> 1000 nM: IC50 [1] | IC50 [2]
< 3.16 nM: IC50 [3] | IC50 [4] | IC50 [5] | IC50 [6]
inactive: viability, T/C [43] 84.4% | viability, T/C [44] 81.1% | viability, T/C [7] 84.7% | viability, T/C [8] 82.6% | viability, T/C [9] 119% | viability, T/C [10] 129% | viability, T/C [45] 53.9% | viability, T/C [46] 56.5% | viability, T/C [13] 48.7% | viability, T/C [14] 64% | viability, T/C [15] 58.3% | viability, T/C [16] 66.7% | viability, T/C [47] 32.8% | viability, T/C [48] 40.6% | viability, T/C [19] 32.6% | viability, T/C [20] 38.2% | viability, T/C [21] 42.3% | viability, T/C [22] 46.4% | viability, T/C [49] 23.9% | viability, T/C [50] 26.5% | viability, T/C [25] 24.7% | viability, T/C [26] 34.2% | viability, T/C [27] 35.8% | viability, T/C [28] 39.2% | viability, T/C [51] 18.1% | viability, T/C [52] 19% | viability, T/C [31] 25% | viability, T/C [32] 22.9% | viability, T/C [33] 27.2% | viability, T/C [34] 37% | viability, T/C [53] 19.9% | viability, T/C [54] 18.4% | viability, T/C [37] 21.7% | viability, T/C [38] 22.5% | viability, T/C [39] 31.2% | viability, T/C [40] 27.1%

COC1C=CCC(C)C(C)S(=O)(=O)NC(=O)c2ccc3c(c2)N(CC2CCC21)CC1(CCCc2cc(Cl)ccc21)CO3 (centres undefined) + CNC(=O)c1ccc(Nc2nc(OC3CCCC3)c3c(-c4ccc5nc(C)oc5c4)c[nH]c3n2)c(OC)c1
active: viability, T/C [11] 6.83% | viability, T/C [12] 3.49% | viability, T/C [17] 7.48% | viability, T/C [18] 5.14% | viability, T/C [23] 5.62% | viability, T/C [24] 3.86% | viability, T/C [28] 7.06% | viability, T/C [29] 4.08% | viability, T/C [30] 2.86% | viability, T/C [32] 11% | viability, T/C [33] 7.5% | viability, T/C [34] 4.35% | viability, T/C [35] 2.97% | viability, T/C [36] 3% | viability, T/C [38] 9.12% | viability, T/C [39] 6.08% | viability, T/C [40] 5.45% | viability, T/C [41] 3.56% | viability, T/C [42] 3.09%
inactive: viability, T/C [7] 89.9% | viability, T/C [8] 103% | viability, T/C [9] 85.8% | viability, T/C [10] 33.2% | viability, T/C [13] 43.1% | viability, T/C [14] 36.9% | viability, T/C [15] 24.7% | viability, T/C [16] 19.2% | viability, T/C [19] 24.4% | viability, T/C [20] 19.1% | viability, T/C [21] 16.4% | viability, T/C [22] 9.76% | viability, T/C [25] 15.8% | viability, T/C [26] 14.5% | viability, T/C [27] 13.3% | viability, T/C [31] 11.4% | viability, T/C [37] 14.1%
695 nM: IC50 [1]
< 31.6 nM: IC50 [2] | IC50 [3] | IC50 [4] | IC50 [5] | IC50 [6]

O=C(c1cc(Cc2n[nH]c(=O)c3ccccc23)ccc1F)N1CCN(C(=O)C2CC2)CC1
> 10000 nM: IC50 (curve of compound)
inactive: viability, T/C (compound 0.0316 µM) 128% and 92% | viability, T/C (compound 0.1 µM) 96.3% and 94.3% | viability, T/C (compound 0.316 µM) 113% and 94.3% | viability, T/C (compound 1 µM) 90.7% and 83.8% | viability, T/C (compound 3.16 µM) 95% and 117% | viability, T/C (compound 10 µM) 122% and 58.1%

CC(C)CC(NC(=O)C(Cc1ccccc1)NC(=O)c1cnccn1)B(O)O (centres undefined)
5.16 nM and 5.03 nM: IC50 (curve of compound)
active: viability, T/C (compound 0.03 µM) 4.99% and 0.69% | viability, T/C (compound 0.0949 µM) 2.74% and 2.59% | viability, T/C (compound 0.3 µM) 1.61% and 0.54%
inactive: viability, T/C (compound 0.000949 µM) 97.2% and 89.6% | viability, T/C (compound 0.003 µM) 85.3% and 89.2%
10.3% and 1.88%: viability, T/C (compound 0.00949 µM)
